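Cultured in 96-well plates, cells were exposed to test compound for 48 hours across five concentrations. Definition used: TGI = concentration required for complete inhibition of growth.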
Key:
Assay in all cases: inhibition of tumour cell growth, NCI panel, 48 h
786-0 renal = test system: 786-0 renal
A498 renal = test system: A498 renal
A549 NSCLC = test system: A549 NSCLC
ACHN renal = test system: ACHN renal
CAKI-1 renal = test system: CAKI-1 renal
CCRF-CEM leukemia = test system: CCRF-CEM leukemia
COLO 205 colon = test system: COLO 205 colon
DLD-1 colon = test system: DLD-1 colon
DMS 114 small cell lung = test system: DMS 114 small cell lung
EKVX NSCLC = test system: EKVX NSCLC
HCC-2998 colon = test system: HCC-2998 colon
HCT-116 colon = test system: HCT-116 colon
HCT-15 colon = test system: HCT-15 colon
HL-60(TB) leukemia = test system: HL-60(TB) leukemia
HOP-18 NSCLC = test system: HOP-18 NSCLC
HOP-92 NSCLC = test system: HOP-92 NSCLC
HT29 colon = test system: HT29 colon
IGROV1 ovarian = test system: IGROV1 ovarian
K-562 leukemia = test system: K-562 leukemia
KM12 colon = test system: KM12 colon
LOX IMVI melanoma = test system: LOX IMVI melanoma
LXFL 529 NSCLC = test system: LXFL 529 NSCLC
M14 melanoma = test system: M14 melanoma
M19-MEL melanoma = test system: M19-MEL melanoma
MALME-3M melanoma = test system: MALME-3M melanoma
MOLT-4 leukemia = test system: MOLT-4 leukemia
NCI-H226 lung = test system: NCI-H226 lung
NCI-H23 lung = test system: NCI-H23 lung
NCI-H460 lung = test system: NCI-H460 lung
NCI-H522 lung = test system: NCI-H522 lung
OVCAR-4 ovarian = test system: OVCAR-4 ovarian
OVCAR-5 ovarian = test system: OVCAR-5 ovarian
OVCAR-8 ovarian = test system: OVCAR-8 ovarian
RPMI-8226 leukemia = test system: RPMI-8226 leukemia
RXF-631 renal = test system: RXF-631 renal
SF-268 CNS = test system: SF-268 CNS
SF-295 CNS = test system: SF-295 CNS
SF-539 CNS = test system: SF-539 CNS
SK-MEL-2 melanoma = test system: SK-MEL-2 melanoma
SK-MEL-28 melanoma = test system: SK-MEL-28 melanoma
SK-MEL-5 melanoma = test system: SK-MEL-5 melanoma
SK-OV-3 ovarian = test system: SK-OV-3 ovarian
SN12C renal = test system: SN12C renal
SNB-75 CNS = test system: SNB-75 CNS
SNB-78 CNS = test system: SNB-78 CNS
SR leukemia = test system: SR leukemia
SW-620 colon = test system: SW-620 colon
TK-10 renal = test system: TK-10 renal
U251 CNS = test system: U251 CNS
UACC-257 melanoma = test system: UACC-257 melanoma
UACC-62 melanoma = test system: UACC-62 melanoma
UO-31 renal = test system: UO-31 renal
XF 498 CNS = test system: XF 498 CNS
DMS 273 small cell lung = test system: DMS 273 small cell lung
HOP-62 NSCLC = test system: HOP-62 NSCLC
KM20L2 colon = test system: KM20L2 colon
RXF 393 renal = test system: RXF 393 renal
OVCAR-3 ovarian = test system: OVCAR-3 ovarian
SNB-19 CNS = test system: SNB-19 CNS

N#C/C(=C/c1ccco1)C(=O)c1ccccc1
TGI (786-0 renal): > 100 µM | TGI (A498 renal): > 100 µM | TGI (A549 NSCLC): > 100 µM | TGI (ACHN renal): > 100 µM | TGI (CAKI-1 renal): > 100 µM | TGI (CCRF-CEM leukemia): > 100 µM | TGI (COLO 205 colon): > 100 µM | TGI (DLD-1 colon): > 100 µM | TGI (DMS 114 small cell lung): > 100 µM | TGI (EKVX NSCLC): > 100 µM | TGI (HCC-2998 colon): > 100 µM | TGI (HCT-116 colon): > 100 µM | TGI (HCT-15 colon): > 100 µM | TGI (HL-60(TB) leukemia): > 100 µM | TGI (HOP-18 NSCLC): > 100 µM | TGI (HOP-92 NSCLC): > 100 µM | TGI (HT29 colon): > 100 µM | TGI (IGROV1 ovarian): > 100 µM | TGI (K-562 leukemia): > 100 µM | TGI (KM12 colon): > 100 µM | TGI (LOX IMVI melanoma): > 100 µM | TGI (LXFL 529 NSCLC): > 100 µM | TGI (M14 melanoma): > 100 µM | TGI (M19-MEL melanoma): > 100 µM | TGI (MALME-3M melanoma): > 100 µM | TGI (MOLT-4 leukemia): > 100 µM | TGI (NCI-H226 lung): > 100 µM | TGI (NCI-H23 lung): > 100 µM | TGI (NCI-H460 lung): > 100 µM | TGI (NCI-H522 lung): > 100 µM | TGI (OVCAR-4 ovarian): > 100 µM | TGI (OVCAR-5 ovarian): > 100 µM | TGI (OVCAR-8 ovarian): > 100 µM | TGI (RPMI-8226 leukemia): > 100 µM | TGI (RXF-631 renal): > 100 µM | TGI (SF-268 CNS): > 100 µM | TGI (SF-295 CNS): > 100 µM | TGI (SF-539 CNS): > 100 µM | TGI (SK-MEL-2 melanoma): > 100 µM | TGI (SK-MEL-28 melanoma): > 100 µM | TGI (SK-MEL-5 melanoma): > 100 µM | TGI (SK-OV-3 ovarian): > 100 µM | TGI (SN12C renal): > 100 µM | TGI (SNB-75 CNS): > 100 µM | TGI (SNB-78 CNS): > 100 µM | TGI (SR leukemia): > 100 µM | TGI (SW-620 colon): > 100 µM | TGI (TK-10 renal): > 100 µM | TGI (U251 CNS): > 100 µM | TGI (UACC-257 melanoma): > 100 µM | TGI (UACC-62 melanoma): > 100 µM | TGI (UO-31 renal): > 100 µM | TGI (XF 498 CNS): > 100 µM

N/N=C(/Cc1ccccc1)NNC(N)=S
TGI (786-0 renal): > 100 µM | TGI (A498 renal): > 100 µM | TGI (A549 NSCLC): > 100 µM | TGI (ACHN renal): > 100 µM | TGI (CCRF-CEM leukemia): > 100 µM | TGI (COLO 205 colon): > 100 µM | TGI (DLD-1 colon): > 100 µM | TGI (DMS 114 small cell lung): > 100 µM | TGI (DMS 273 small cell lung): > 100 µM | TGI (EKVX NSCLC): > 100 µM | TGI (HCC-2998 colon): > 100 µM | TGI (HCT-15 colon): > 100 µM | TGI (HL-60(TB) leukemia): > 100 µM | TGI (HOP-18 NSCLC): > 100 µM | TGI (HOP-62 NSCLC): > 100 µM | TGI (HOP-92 NSCLC): > 100 µM | TGI (HT29 colon): > 100 µM | TGI (IGROV1 ovarian): > 100 µM | TGI (K-562 leukemia): > 100 µM | TGI (KM12 colon): > 100 µM | TGI (KM20L2 colon): > 100 µM | TGI (LOX IMVI melanoma): > 100 µM | TGI (LXFL 529 NSCLC): > 100 µM | TGI (M14 melanoma): > 100 µM | TGI (M19-MEL melanoma): > 100 µM | TGI (MALME-3M melanoma): > 100 µM | TGI (MOLT-4 leukemia): > 100 µM | TGI (NCI-H226 lung): > 100 µM | TGI (NCI-H460 lung): > 100 µM | TGI (NCI-H522 lung): 76 µM | TGI (OVCAR-4 ovarian): > 100 µM | TGI (OVCAR-5 ovarian): > 100 µM | TGI (OVCAR-8 ovarian): > 100 µM | TGI (RPMI-8226 leukemia): > 100 µM | TGI (RXF 393 renal): > 100 µM | TGI (RXF-631 renal): > 100 µM | TGI (SF-268 CNS): > 100 µM | TGI (SF-295 CNS): > 100 µM | TGI (SF-539 CNS): > 100 µM | TGI (SK-MEL-2 melanoma): > 100 µM | TGI (SK-MEL-28 melanoma): > 100 µM | TGI (SK-OV-3 ovarian): > 100 µM | TGI (SNB-75 CNS): > 100 µM | TGI (SW-620 colon): > 100 µM | TGI (TK-10 renal): > 100 µM | TGI (U251 CNS): > 100 µM | TGI (UACC-257 melanoma): > 100 µM | TGI (UACC-62 melanoma): > 100 µM | TGI (UO-31 renal): > 100 µM | TGI (XF 498 CNS): > 100 µM

Cc1c(Cl)ccc2c1NC(=O)C2(O)CC(=O)c1ccc2ccccc2c1 (stereo not given)
TGI (786-0 renal): > 100 µM | TGI (A498 renal): > 100 µM | TGI (A549 NSCLC): > 100 µM | TGI (ACHN renal): > 100 µM | TGI (CAKI-1 renal): > 100 µM | TGI (CCRF-CEM leukemia): > 100 µM | TGI (COLO 205 colon): > 100 µM | TGI (DLD-1 colon): > 100 µM | TGI (DMS 114 small cell lung): 58.4 µM | TGI (EKVX NSCLC): > 100 µM | TGI (HCC-2998 colon): > 100 µM | TGI (HCT-116 colon): > 100 µM | TGI (HCT-15 colon): > 100 µM | TGI (HOP-18 NSCLC): > 100 µM | TGI (HOP-62 NSCLC): > 100 µM | TGI (HOP-92 NSCLC): > 100 µM | TGI (HT29 colon): > 100 µM | TGI (IGROV1 ovarian): > 100 µM | TGI (K-562 leukemia): > 100 µM | TGI (KM12 colon): > 100 µM | TGI (KM20L2 colon): > 100 µM | TGI (LOX IMVI melanoma): > 100 µM | TGI (M14 melanoma): > 100 µM | TGI (MALME-3M melanoma): > 100 µM | TGI (MOLT-4 leukemia): 89.5 µM | TGI (NCI-H226 lung): > 100 µM | TGI (NCI-H23 lung): > 100 µM | TGI (NCI-H460 lung): > 100 µM | TGI (NCI-H522 lung): 61.7 µM | TGI (OVCAR-3 ovarian): > 100 µM | TGI (OVCAR-4 ovarian): > 100 µM | TGI (OVCAR-5 ovarian): > 100 µM | TGI (OVCAR-8 ovarian): > 100 µM | TGI (RPMI-8226 leukemia): 46.7 µM | TGI (RXF 393 renal): 88.9 µM | TGI (RXF-631 renal): > 100 µM | TGI (SF-268 CNS): > 100 µM | TGI (SF-295 CNS): > 100 µM | TGI (SF-539 CNS): > 100 µM | TGI (SK-MEL-2 melanoma): > 100 µM | TGI (SK-MEL-28 melanoma): > 100 µM | TGI (SK-OV-3 ovarian): > 100 µM | TGI (SN12C renal): > 100 µM | TGI (SNB-19 CNS): > 100 µM | TGI (SNB-75 CNS): 54.2 µM | TGI (SW-620 colon): > 100 µM | TGI (TK-10 renal): > 100 µM | TGI (U251 CNS): > 100 µM | TGI (UACC-257 melanoma): > 100 µM | TGI (UACC-62 melanoma): > 100 µM | TGI (UO-31 renal): > 100 µM | TGI (XF 498 CNS): > 100 µM

Reference: PubChem BioAssay (NCI)
